Assay results reported in ChEMBL document CHEMBL1142025 (Bioorg Med Chem Lett, 2005).
Each block holds one compound with its values, some of them ahead of it.

Assays:
[1] = biological target: T1, Human immunodeficiency virus type 1 protease (Human immunodeficiency virus 1, UniProt Q72874); assay: Binding affinity against human immunodeficiency virus (HIV) protease; format: single protein, human immuno deficiency virus protease
[2] = Inhibitory concentration against cathepsin
Renin = biological target: T2, Renin (Homo sapiens, UniProt P00797); assay: Inhibitory concentration against renin
T2 sequence (P00797 whole entry): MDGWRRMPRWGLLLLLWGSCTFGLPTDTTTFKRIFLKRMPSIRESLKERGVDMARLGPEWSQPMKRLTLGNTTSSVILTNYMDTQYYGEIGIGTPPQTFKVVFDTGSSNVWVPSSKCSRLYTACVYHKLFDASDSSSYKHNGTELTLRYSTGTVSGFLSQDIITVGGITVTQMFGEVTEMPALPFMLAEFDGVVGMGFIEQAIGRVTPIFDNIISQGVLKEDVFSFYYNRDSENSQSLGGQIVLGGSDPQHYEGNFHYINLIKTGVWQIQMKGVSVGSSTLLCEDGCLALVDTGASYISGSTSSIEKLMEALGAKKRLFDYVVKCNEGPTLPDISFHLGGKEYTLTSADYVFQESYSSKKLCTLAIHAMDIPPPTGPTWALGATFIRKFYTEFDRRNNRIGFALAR

[3] = biological target: T1, Human immunodeficiency virus type 1 protease; assay: Inhibitory concentration against human immunodeficiency virus (HIV) protease; parameters: species or system human immuno deficiency virus protease
Pepsin A = Pepsin A (Homo sapiens, UniProt P0DJD9); assay: Inhibitory concentration against pepsin
Sequence of Pepsin A (P0DJD9 whole entry): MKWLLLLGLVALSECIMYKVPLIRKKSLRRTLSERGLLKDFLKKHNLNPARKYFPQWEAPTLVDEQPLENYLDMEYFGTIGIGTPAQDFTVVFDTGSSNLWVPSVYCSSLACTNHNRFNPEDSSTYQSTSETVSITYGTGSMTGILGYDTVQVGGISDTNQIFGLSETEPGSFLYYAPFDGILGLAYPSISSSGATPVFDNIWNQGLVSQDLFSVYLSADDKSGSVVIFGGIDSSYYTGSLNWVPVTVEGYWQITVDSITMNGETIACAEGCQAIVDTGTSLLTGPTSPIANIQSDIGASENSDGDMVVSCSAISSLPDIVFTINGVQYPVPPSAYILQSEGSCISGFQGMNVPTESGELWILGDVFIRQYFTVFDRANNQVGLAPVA

SMILES: CC(C)CN([C@@H](CCCCNC(=O)OCC1c2ccccc2-c2ccccc21)C(=O)O)S(=O)(=O)c1ccc(F)cc1
Ki [1]: 17.4 nM

SMILES: CC(C)CN([C@@H](CCCCNC(=O)OCC1c2ccccc2-c2ccccc21)C(=O)O)S(=O)(=O)c1ccc(N)cc1
IC50 [2]: 10300 nM
Ki [1]: 2.1 nM
IC50 (Renin): 5200 nM
IC50 [3]: 2.1 nM
IC50 (Pepsin A): 4100 nM

SMILES: Cc1ccc(S(=O)(=O)N(CC2CC2)[C@@H](CCCCNC(=O)OCC2c3ccccc3-c3ccccc32)C(=O)O)cc1
Ki [1]: 3.9 nM

SMILES: CC(C)CN([C@@H](CCCCNC(=O)OCC1c2ccccc2-c2ccccc21)C(=O)O)S(=O)(=O)c1cccs1
Ki [1]: 42 nM

SMILES: Cc1ccc(S(=O)(=O)N(CC(C)C)[C@@H](CCCCNC(=O)OC(C)(C)C)C(=O)O)cc1
Ki [1]: > 250 nM

SMILES: CC(C)(C)OC(=O)NCCCC[C@H](NC(=O)OCc1ccccc1)C(=O)O
Ki [1]: > 100000 nM

SMILES: Cc1ccc(S(=O)(=O)N[C@@H](CCCCNC(=O)OC(C)(C)C)C(=O)O)cc1
Ki [1]: > 100000 nM

SMILES: CC(C)CN([C@@H](CCCCNC(=O)OCC1c2ccccc2-c2ccccc21)C(=O)O)S(=O)(=O)c1ccc([N+](=O)[O-])cc1
Ki [1]: 7.2 nM

SMILES: CC(C)CN([C@@H](CCCCNC(=O)OCC1c2ccccc2-c2ccccc21)C(=O)O)S(=O)(=O)c1ccc(C(C)(C)C)cc1
Ki [1]: 257 nM

SMILES: CC(C)CN([C@@H](CCCCNC(=O)OCC1c2ccccc2-c2ccccc21)C(=O)O)S(=O)(=O)c1cccc2ccccc12
Ki [1]: 54.9 nM

SMILES: Cc1ccc(S(=O)(=O)N(Cc2ccccc2)[C@@H](CCCCNC(=O)OCC2c3ccccc3-c3ccccc32)C(=O)O)cc1
Ki [1]: 19.6 nM

SMILES: CCC(CC)CN([C@@H](CCCCNC(=O)OCC1c2ccccc2-c2ccccc21)C(=O)O)S(=O)(=O)c1ccc(C)cc1
Ki [1]: 15.2 nM

SMILES: CCC(C)CN([C@@H](CCCCNC(=O)OCC1c2ccccc2-c2ccccc21)C(=O)O)S(=O)(=O)c1ccc(C)cc1 (stereo partly drawn)
Ki [1]: 13.5 nM

SMILES: Cc1ccc(S(=O)(=O)N(CC2CCCC2)[C@@H](CCCCNC(=O)OCC2c3ccccc3-c3ccccc32)C(=O)O)cc1
Ki [1]: 5.2 nM

SMILES: Cc1ccc(S(=O)(=O)N(CC(C)C)[C@@H](CCCCNC(=O)CC2c3ccccc3-c3ccccc32)C(=O)O)cc1
Ki [1]: 89.7 nM

SMILES: Cc1ccc(S(=O)(=O)N(CC(C)C)[C@@H](CCCNC(=O)OCC2c3ccccc3-c3ccccc32)C(=O)O)cc1
Ki [1]: 180 nM

Continued, values first:

Ki [1]: > 250 nM
SMILES: Cc1ccc(S(=O)(=O)N(CC(C)C)[C@@H](CCCCNC(=O)OCc2ccccc2)C(=O)O)cc1

Ki [1]: > 300 nM
SMILES: COC(=O)[C@H](CCCCNC(=O)OC1c2ccccc2-c2ccccc21)N(CC(C)C)S(=O)(=O)c1ccc(C)cc1

Ki [1]: > 300 nM
SMILES: Cc1ccc(S(=O)(=O)N(CC(C)C)[C@@H](CCCCNC(=O)OC2c3ccccc3-c3ccccc32)c2nnn[nH]2)cc1

Ki [1]: 107 nM
SMILES: Cc1ccc(S(=O)(=O)N(CC(C)C)[C@H](CO)CCCCNC(=O)OC2c3ccccc3-c3ccccc32)cc1

Ki [1]: 26200 nM
SMILES: Cc1ccc(S(=O)(=O)NCCC[C@H](NC(=O)OCC2c3ccccc3-c3ccccc32)C(=O)O)cc1

Ki [1]: 107 nM
SMILES: Cc1ccc(S(=O)(=O)N(CC(C)C)[C@@H](CCCCNC(=O)OC2c3ccccc3-c3ccccc32)C(N)=O)cc1

Ki [1]: 254 nM
SMILES: Cc1ccc(S(=O)(=O)N(CC(C)C)[C@@H](CCCCNC(=O)OC2c3ccccc3-c3ccccc32)C(=O)NN)cc1

Ki [1]: 105 nM
SMILES: Cc1ccc(S(=O)(=O)N(CC(C)C)[C@@H](CCCCNC(=O)OC2c3ccccc3-c3ccccc32)C(=O)O)cc1

Ki [1]: > 250 nM
SMILES: Cc1ccc(S(=O)(=O)N(CC(C)C)[C@@H](CCNC(=O)OCC2c3ccccc3-c3ccccc32)C(=O)O)cc1

Ki [1]: 127 nM
SMILES: Cc1ccc(S(=O)(=O)N(CC(C)C)[C@@H](CCCCNC(=O)OC2c3ccccc3-c3ccccc32)C(=N)S)cc1

Ki [1]: > 250 nM
SMILES: Cc1ccc(S(=O)(=O)N(CC(C)C)[C@@H](CCCCCNC(=O)OCC2c3ccccc3-c3ccccc32)C(=O)O)cc1

Ki [1]: 2000 nM
SMILES: Cc1ccc(S(=O)(=O)N(CCCC[C@H](NC(=O)OCC2c3ccccc3-c3ccccc32)C(=O)O)CC(C)C)cc1

IC50 [2]: 15600 nM
Ki [1]: 5 nM
IC50 (Renin): 6500 nM
IC50 [3]: 5 nM
IC50 (Pepsin A): 5400 nM
SMILES: Cc1ccc(S(=O)(=O)N(CC(C)C)[C@@H](CCCCNC(=O)OCC2c3ccccc3-c3ccccc32)C(=O)O)cc1

Ki [1]: 245 nM
SMILES: Cc1ccc(S(=O)(=O)N(CC(C)C)[C@@H](CCCCNC(=O)OC2c3ccccc3-c3ccccc32)C(=O)NO)cc1

Ki [1]: 280 nM
SMILES: Cc1ccc(S(=O)(=O)N(CC(C)C)[C@@H](CCCCNC(=O)OC2c3ccccc3-c3ccccc32)C(=N)N)cc1

Ki [1]: > 300 nM
SMILES: Cc1ccc(S(=O)(=O)N(CC(C)C)[C@H](C=O)CCCCNC(=O)OC2c3ccccc3-c3ccccc32)cc1

Ki [1]: > 250 nM
SMILES: Cc1ccc(S(=O)(=O)N(CC(C)C)[C@@H](CNC(=O)OCC2c3ccccc3-c3ccccc32)C(=O)O)cc1

Ki [1]: > 300 nM
SMILES: CC(C)CN(C(=O)c1ccccc1)[C@@H](CCCCNC(=O)OCC1c2ccccc2-c2ccccc21)C(=O)O

Ki [1]: > 300 nM
SMILES: Cc1ccc(S(=O)(=O)N(CC(C)C)[C@H](CN)CCCCNC(=O)OC2c3ccccc3-c3ccccc32)cc1
